Data set [1] in a line: Subplantar edema caused by carrageenan (antiinflammatory activity). The data set is classed as in vivo. Also noted: Volume of Paw in No. of Hours after the Treatment: 0 / Volume of Paw in No. of Hours after the Treatment: 1 / Volume of Paw in No. of Hours after the Treatment: 2 / Volume of Paw in No. of Hours after the Treatment: 3 / Volume of Paw in No. of Hours after the Treatment: 4 / Volume of Paw in No. of Hours after the Treatment: 5: dose or concentration left out as unconfirmed. The conditions noted are these: rats, oral; for AREA % Inhibition vs. Control / AREA Absolute Value: paw volume 0-5 h, acetylsalicylic acid 250, ibuprofen 100, paracetamol 100, diflunisal 25, MR 713 25 mg/kg. The text has this: The experiments have been carried out with rats and carrageenan has been used as the agent causing edema.
Subplantar Edema Caused by Carrageenan in Rats

A short description of data set [2]: Contorsions caused by phenylquinone (analgesic activity). The data set is classed as in vivo. Particulars: mice, oral; phenylquinone 30 min after; acetylsalicylic acid 250, ibuprofen 100, paracetamol 100, diflunisal 25, MR 713 25 mg/kg. From the text: The analgesic activity has been tested in mice using the contorsion test caused by phenylquinone. […] Phenylquinone has been administered thirty minutes after the substance under test and the results obtained are reported in Table II.
Contorsions Caused by Phenylquinone in Mice

A short description of data set [3]: Acute toxicity, oral. In kind it is in vivo. The conditions noted are these: mice.
The nature of data set [4]: Plasmatic levels half-life, oral. In kind it is in vivo. The conditions noted are these: rats, at equal dose. How it is done:
The pharmacodynamic tests carried out in rats and administering MR 713 by the oral route in the doses of 25, 50, and 100 mg/kg, show a half-life time of plasmatic levels, which is possible to calculate in the dose of 25 mg/kg, of about eleven hours. […] The pharmacodynamic tests permit to administer one or at the most two daily doses of MR 713.

A short description of data set [5]: Solubility. In kind it is physicochemical.
Where [6] appears, read: rats fasted 18 h, oral, 6 h, MR 713 25 mg/kg.

Molecules are shown by their SMILES. Entries after “also recorded” stand apart in the source; their conditions may differ. Read-outs that look alike come from different tables or passages of the source.

For `O=C(O)c1cc(-c2ccc(F)cc2F)ccc1O` [Diflunisal, diflunisal], the “Volume of Paw in No. of Hours after the Treatment: 0” value in data set [1] (0 h) is recorded as 21.2. Further, in data set [1] (1 h), the “Volume of Paw in No. of Hours after the Treatment: 1” value amounted to 25.6. Also, the “Volume of Paw in No. of Hours after the Treatment: 2” value in data set [1] (2 h) came to 29.7. The “Volume of Paw in No. of Hours after the Treatment: 3” value in data set [1] (3 h) came to 31.0. In data set [1] (4 h), the “Volume of Paw in No. of Hours after the Treatment: 4” value is listed as 33.4. Further, the “Volume of Paw in No. of Hours after the Treatment: 5” value in data set [1] (5 h) is 33.1. Also, in data set [1], the “AREA % Inhibition vs. Control” value is recorded as 30.0% and the “AREA Absolute Value” is reported as 190.7. Besides, under “rat, in vivo, po, 25 mg/kg”, the “Average Size of Ulcer in mm” value came out at 0.7 ± 0.4 mm. Also, in data set [2], the “% Inhibition vs. Controls (contorsions)” value amounted to 99.1%, the “Average No. of Contorsions” value is on record as 0.2 ± 0.2 and the “No. of Animals with Contorsions” value is 1/9.

For `CC(C)Cc1ccc(C(C)C(=O)O)cc1` (stereo not shown) [Ibuprofen, ibuprofen], in data set [1], the “AREA % Inhibition vs. Control” value came out at 40.0% and the “AREA Absolute Value” turned out to be 163.7. For the same compound, the “Average Size of Ulcer in mm” value (rat, in vivo, po, 25 mg/kg) was 2.3 ± 0.7 mm. The “gastric lesions / gastric tolerability” value under setting [6] was “cause gastric lesions”. In addition, in data set [2], the “% Inhibition vs. Controls (contorsions)” value stood at 99.1%, the “Average No. of Contorsions” value was determined as 0.2 ± 0.1 and the “No. of Animals with Contorsions” value is given as 2/10.

On to `O=C(O)COc1ccc(-c2ccc(F)cc2F)cc1` [MR 713, (2',4'-difluoro-4-biphenyl)oxyacetic acid], for which, in data set [1] (MR 713 25 mg/kg, vs diflunisal same dose, paracetamol and ibuprofen four times larger dose, acetylsalicylic acid ten times larger dose, 25 mg/kg), the “antiinflammatory activity compared with reference drugs” value is recorded as “essentially the same as diflunisal; also recorded: substantially superior to paracetamol even when the latter is used in doses four times larger; also recorded: lower than that of ibuprofen; also recorded: essentially equivalent to the activity of acetylsalicylic acid”. Also, in data set [1], the “AREA % Inhibition vs. Control” value is 31.0% and the “AREA Absolute Value” was determined as 186.4. The “acute toxicity” value in data set [3] is on record as “very low acute toxicity”. Besides, the LD50 in data set [3] (mouse, in vivo, body weight, read-out: DL50 (the source's name)) was found to be 790 mg/kg. In addition, for the setting “rat, in vivo, po, 25 mg/kg”, the “Average Size of Ulcer in mm” value was found to be 0.3 ± 0.1 mm; the “gastric lesions / gastric tolerability” value is “causes even less gastric lesions as compared with drugs which are well-known to be tolerated at the gastric level, such as paracetamol and diflunisal”. Also, in data set [2], the “% Inhibition vs. Controls (contorsions)” value is listed as 54.0%, the “Average No. of Contorsions” value came to 10.8 ± 2.8 and the “No. of Animals with Contorsions” value is recorded as 9/10. In addition, the “half-life time of plasmatic levels, compared with other drugs” value in data set [4] is “substantially superior to the action of diflunisal”. In data set [5] (chlorinated hydrocarbons), the “solubility in chlorinated hydrocarbons” value is given as “insoluble”. For the same compound, the “solubility in hot lower alcohols” value in data set [5] (hot lower alcohols) is “soluble”. For the same compound, the solubility in water result in data set [5] (water) is reported as “essentially insoluble”.

Take `CC(=O)Nc1ccc(O)cc1` [Paracetamol, p-acetylaminophenol]: in data set [1], the “AREA % Inhibition vs. Control” value was found to be 10.0% and the “AREA Absolute Value” was determined as 245.7. For the setting “rat, in vivo, po, 25 mg/kg”, the “Average Size of Ulcer in mm” value is recorded as 0.6 ± 0.4 mm. Also, in data set [2], the “% Inhibition vs. Controls (contorsions)” value was determined as 63.4%, the “Average No. of Contorsions” value is reported as 8.6 ± 3.3 and the “No. of Animals with Contorsions” value is 5/10.

For `CC(=O)Oc1ccccc1C(=O)O` [acetylsalicylic acid, acetyl salicylic acid], in data set [1], the “AREA % Inhibition vs. Control” value turned out to be 33.0% and the “AREA Absolute Value” was 182.4. The “Average Size of Ulcer in mm” value (rat, in vivo, po, 25 mg/kg) is listed as 3.7 ± 0.8 mm. The “gastric lesions / gastric tolerability” value under setting [6] is “cause gastric lesions”. Moreover, in data set [2], the “% Inhibition vs. Controls (contorsions)” value came out at 100%, the “Average No. of Contorsions” value is recorded as 0 and the “No. of Animals with Contorsions” value is 0/10.
